Assay results reported in ChEMBL document CHEMBL1201862, “PubChem BioAssay data set” (2004).
Activity calls are given as the source filed them.

Assays:
[1] = target: Phosphorylase b kinase gamma catalytic chain, liver/testis isoform (Homo sapiens, UniProt P15735); format: functional;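 further: PHKG2 measured as one member of a kinome-wide kinase panel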
[2] = target: Serine/threonine-protein kinase Chk2 (Homo sapiens, UniProt O96017); format: functional;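 further: CHEK2 entry within a kinome-wide screening panel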
Serine/threonine-protein kinase Chk2, sequence (O96017 whole entry): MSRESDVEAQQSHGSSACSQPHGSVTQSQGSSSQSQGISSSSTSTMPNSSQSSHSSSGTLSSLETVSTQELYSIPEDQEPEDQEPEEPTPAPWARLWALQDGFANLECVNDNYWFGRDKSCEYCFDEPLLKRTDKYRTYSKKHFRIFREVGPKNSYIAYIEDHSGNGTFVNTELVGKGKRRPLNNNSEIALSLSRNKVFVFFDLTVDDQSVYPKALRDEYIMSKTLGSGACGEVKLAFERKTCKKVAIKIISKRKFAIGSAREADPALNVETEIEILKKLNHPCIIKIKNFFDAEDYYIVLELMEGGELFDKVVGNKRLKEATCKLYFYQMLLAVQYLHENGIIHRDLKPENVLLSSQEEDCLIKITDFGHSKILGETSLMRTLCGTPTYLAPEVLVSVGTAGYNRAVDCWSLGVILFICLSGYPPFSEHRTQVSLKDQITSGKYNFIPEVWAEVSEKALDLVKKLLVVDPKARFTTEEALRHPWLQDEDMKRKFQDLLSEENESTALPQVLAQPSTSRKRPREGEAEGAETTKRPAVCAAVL

[3] = target: Tyrosine-protein kinase ITK/TSK (Homo sapiens, UniProt Q08881); format: functional;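 further: affinity for ITK measured as one member of a broad kinase panel profiling binding across the kinome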
[4] = target: Testis-specific serine/threonine-protein kinase 1 (Homo sapiens, UniProt Q9BXA7); format: functional
Testis-specific serine/threonine-protein kinase 1, sequence (Q9BXA7 whole entry): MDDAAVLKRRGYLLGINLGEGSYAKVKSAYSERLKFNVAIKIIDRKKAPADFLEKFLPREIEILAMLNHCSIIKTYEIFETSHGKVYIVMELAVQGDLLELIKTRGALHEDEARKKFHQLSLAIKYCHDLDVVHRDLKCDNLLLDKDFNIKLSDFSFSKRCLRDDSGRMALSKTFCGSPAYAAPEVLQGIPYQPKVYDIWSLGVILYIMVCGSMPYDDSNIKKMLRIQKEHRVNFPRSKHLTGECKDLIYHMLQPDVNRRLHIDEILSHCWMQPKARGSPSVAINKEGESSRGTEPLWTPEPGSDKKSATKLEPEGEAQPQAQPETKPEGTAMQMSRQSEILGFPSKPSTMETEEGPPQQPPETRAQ

[5] = target: Homeodomain-interacting protein kinase 2 (Homo sapiens, UniProt Q9H2X6); format: functional;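 further: measured within a kinome-wide kinase profiling panel, HIPK2 being one panel member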
Insulin receptor = Insulin receptor (Homo sapiens, UniProt P06213); format: functional;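 further: insulin receptor kinase tested as one member of a kinome-wide kinase panel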
[6] = target: Mitogen-activated protein kinase 13 (Homo sapiens, UniProt O15264); format: functional
[7] = target: Mitogen-activated protein kinase kinase kinase 20 (Homo sapiens, UniProt Q9NYL2); format: functional
[8] = target: Non-receptor tyrosine-protein kinase TYK2 (Homo sapiens, UniProt P29597); format: functional
[9] = target: Tyrosine-protein kinase Srms (Homo sapiens, UniProt Q9H3Y6); format: functional;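 further: SRMS measured as one member of a kinome-wide kinase profiling panel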
Tyrosine-protein kinase Srms, sequence (Q9H3Y6 whole entry): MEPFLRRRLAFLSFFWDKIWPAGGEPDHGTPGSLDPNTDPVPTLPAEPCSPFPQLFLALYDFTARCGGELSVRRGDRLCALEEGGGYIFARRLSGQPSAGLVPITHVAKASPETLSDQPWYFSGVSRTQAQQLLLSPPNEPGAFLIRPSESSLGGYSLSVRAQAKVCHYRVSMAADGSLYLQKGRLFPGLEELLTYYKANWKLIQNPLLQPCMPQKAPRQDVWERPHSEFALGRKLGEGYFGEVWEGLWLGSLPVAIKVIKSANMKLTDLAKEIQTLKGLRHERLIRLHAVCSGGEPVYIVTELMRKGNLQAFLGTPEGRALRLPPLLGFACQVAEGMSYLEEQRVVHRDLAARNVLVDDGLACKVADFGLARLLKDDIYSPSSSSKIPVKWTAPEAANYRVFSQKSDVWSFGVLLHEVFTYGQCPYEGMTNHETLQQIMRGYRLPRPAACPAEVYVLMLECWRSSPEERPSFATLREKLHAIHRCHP

[10] = target: Mitogen-activated protein kinase 1 (Homo sapiens, UniProt P28482); format: functional
[11] = target: Serine/threonine-protein kinase BRSK1 (Homo sapiens, UniProt Q8TDC3); format: functional;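 further: measured within a kinome-wide kinase panel, with the target listed as KIAA1811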
Serine/threonine-protein kinase BRSK1, sequence (Q8TDC3 whole entry): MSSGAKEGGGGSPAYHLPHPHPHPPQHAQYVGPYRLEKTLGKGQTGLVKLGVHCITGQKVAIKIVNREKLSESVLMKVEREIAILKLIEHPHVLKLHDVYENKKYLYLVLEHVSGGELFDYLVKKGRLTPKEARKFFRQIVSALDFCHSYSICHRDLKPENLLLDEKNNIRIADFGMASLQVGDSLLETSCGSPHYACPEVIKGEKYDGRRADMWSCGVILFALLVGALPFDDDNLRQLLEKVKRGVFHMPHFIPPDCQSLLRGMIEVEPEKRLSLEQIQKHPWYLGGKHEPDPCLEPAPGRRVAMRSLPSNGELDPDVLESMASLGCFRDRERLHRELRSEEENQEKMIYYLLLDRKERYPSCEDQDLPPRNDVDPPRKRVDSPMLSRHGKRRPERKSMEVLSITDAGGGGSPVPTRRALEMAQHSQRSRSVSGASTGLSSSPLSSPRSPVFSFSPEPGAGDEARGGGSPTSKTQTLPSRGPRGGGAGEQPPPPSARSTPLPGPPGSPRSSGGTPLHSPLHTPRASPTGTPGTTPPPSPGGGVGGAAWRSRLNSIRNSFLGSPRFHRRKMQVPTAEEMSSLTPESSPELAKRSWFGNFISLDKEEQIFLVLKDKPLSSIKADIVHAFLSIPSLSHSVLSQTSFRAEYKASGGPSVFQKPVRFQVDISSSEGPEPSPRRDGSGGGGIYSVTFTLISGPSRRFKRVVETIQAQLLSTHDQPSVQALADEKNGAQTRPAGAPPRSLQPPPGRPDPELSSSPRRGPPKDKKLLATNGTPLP

[12] = target: Tyrosine-protein kinase receptor UFO (Homo sapiens, UniProt P30530); format: functional
Tyrosine-protein kinase receptor UFO, sequence (P30530 whole entry): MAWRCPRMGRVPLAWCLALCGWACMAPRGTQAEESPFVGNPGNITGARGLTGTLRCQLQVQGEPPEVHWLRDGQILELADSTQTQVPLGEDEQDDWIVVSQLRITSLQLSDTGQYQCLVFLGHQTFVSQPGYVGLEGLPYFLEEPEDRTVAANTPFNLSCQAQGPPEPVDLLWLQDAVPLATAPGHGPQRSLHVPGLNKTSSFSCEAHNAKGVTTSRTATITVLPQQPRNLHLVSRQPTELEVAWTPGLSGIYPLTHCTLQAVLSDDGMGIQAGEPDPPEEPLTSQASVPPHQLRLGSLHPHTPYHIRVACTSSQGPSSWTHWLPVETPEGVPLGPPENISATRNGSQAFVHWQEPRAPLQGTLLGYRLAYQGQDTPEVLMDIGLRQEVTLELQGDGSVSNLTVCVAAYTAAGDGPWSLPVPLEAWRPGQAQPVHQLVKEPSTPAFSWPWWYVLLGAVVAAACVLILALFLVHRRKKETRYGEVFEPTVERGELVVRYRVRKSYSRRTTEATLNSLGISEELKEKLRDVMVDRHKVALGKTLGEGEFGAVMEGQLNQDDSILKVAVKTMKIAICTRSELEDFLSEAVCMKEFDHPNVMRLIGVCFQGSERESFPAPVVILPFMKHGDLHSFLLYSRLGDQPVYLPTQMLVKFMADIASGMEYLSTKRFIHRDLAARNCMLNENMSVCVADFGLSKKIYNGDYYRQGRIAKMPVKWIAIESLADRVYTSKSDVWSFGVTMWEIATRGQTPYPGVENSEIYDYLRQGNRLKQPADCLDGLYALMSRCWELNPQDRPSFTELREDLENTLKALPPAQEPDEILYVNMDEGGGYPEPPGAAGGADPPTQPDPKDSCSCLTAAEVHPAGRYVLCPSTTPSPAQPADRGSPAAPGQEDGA

[13] = tested on: Streptococcus sp. 'group A'; assay: growth inhibition of control SK(-) GAS strain, dose response, counter-screen for streptokinase expression inhibitor project, luminescence, kanamycin, BacTiterGlo, confirmation (AID 1900); format: functional, organism-based
Genome polyprotein = Genome polyprotein (dengue virus type 2, UniProt P29990); assay: Dengue-2 NS5 methyltransferase inhibitors, primary screen, biochemical, confirmation dose response (AID 588689); format: functional
[14] = target: Apoptotic protease-activating factor 1 (Homo sapiens, UniProt O14727); format: functional
Apoptotic protease-activating factor 1, sequence (O14727 whole entry): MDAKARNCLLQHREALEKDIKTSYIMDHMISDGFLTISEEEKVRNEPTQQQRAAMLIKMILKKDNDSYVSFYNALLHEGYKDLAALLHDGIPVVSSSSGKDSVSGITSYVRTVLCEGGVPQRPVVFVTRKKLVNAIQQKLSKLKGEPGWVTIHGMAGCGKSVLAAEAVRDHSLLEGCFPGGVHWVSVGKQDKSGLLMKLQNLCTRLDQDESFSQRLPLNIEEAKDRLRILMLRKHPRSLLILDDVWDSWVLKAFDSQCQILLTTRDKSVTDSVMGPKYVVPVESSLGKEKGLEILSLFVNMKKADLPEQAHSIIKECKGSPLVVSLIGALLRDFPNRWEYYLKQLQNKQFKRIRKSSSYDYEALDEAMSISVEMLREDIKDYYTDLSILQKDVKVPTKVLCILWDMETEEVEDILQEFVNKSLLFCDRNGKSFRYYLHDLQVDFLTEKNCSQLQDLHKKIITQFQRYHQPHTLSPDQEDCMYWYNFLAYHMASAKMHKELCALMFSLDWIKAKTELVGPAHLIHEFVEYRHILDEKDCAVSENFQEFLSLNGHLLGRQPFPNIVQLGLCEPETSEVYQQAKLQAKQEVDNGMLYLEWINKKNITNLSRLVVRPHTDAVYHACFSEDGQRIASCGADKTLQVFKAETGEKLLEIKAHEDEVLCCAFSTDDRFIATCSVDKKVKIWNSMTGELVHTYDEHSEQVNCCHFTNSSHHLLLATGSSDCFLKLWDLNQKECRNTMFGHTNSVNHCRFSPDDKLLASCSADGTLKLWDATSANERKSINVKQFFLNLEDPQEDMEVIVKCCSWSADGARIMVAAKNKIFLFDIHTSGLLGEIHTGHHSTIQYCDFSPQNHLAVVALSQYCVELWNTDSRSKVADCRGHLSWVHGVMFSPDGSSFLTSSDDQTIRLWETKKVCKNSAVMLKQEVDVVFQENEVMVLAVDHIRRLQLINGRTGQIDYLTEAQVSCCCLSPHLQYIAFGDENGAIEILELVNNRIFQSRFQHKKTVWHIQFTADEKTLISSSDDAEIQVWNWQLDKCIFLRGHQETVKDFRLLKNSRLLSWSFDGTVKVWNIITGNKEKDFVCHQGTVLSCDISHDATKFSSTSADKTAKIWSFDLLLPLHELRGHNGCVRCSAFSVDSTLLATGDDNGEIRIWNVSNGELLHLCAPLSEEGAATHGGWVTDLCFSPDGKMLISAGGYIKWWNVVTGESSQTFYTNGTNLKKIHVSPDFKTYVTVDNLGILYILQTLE

Protein RecA = target: T1, Protein RecA (Mycobacterium tuberculosis, UniProt P9WHJ3); assay: Fluorescence Cell-Free Homogeneous Dose Retest to Identify Inhibitors of RecA-Intein Splicing Activity. [Related pubchem assays (depositor defined):AID2097, AID2223, AID489010, AID492950]; format: functional
T1 sequence (P9WHJ3 whole entry): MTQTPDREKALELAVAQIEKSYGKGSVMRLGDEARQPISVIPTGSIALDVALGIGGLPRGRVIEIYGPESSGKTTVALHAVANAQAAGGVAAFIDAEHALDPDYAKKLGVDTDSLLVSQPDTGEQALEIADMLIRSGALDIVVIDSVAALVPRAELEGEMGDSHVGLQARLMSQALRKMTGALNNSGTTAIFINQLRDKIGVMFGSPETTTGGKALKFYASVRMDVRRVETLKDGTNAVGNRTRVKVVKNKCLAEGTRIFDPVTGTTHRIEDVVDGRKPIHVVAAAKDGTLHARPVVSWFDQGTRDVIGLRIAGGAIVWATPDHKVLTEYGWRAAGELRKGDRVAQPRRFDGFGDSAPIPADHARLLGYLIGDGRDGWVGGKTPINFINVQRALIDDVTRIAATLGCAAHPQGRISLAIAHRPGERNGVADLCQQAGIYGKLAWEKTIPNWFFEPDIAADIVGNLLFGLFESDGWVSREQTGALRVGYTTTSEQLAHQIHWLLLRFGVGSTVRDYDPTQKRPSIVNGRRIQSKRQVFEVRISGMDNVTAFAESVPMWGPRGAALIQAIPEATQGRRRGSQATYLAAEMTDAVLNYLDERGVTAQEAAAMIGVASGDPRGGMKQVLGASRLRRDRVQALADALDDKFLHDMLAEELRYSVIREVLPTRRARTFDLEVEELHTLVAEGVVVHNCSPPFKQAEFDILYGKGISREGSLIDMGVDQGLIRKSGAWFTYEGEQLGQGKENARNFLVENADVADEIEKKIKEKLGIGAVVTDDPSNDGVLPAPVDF

[15] = target: Vascular endothelial growth factor receptor 2 (Homo sapiens, UniProt P35968); format: functional

Phosphorylase b kinase gamma catalytic chain, liver/testis isoform, sequence (P15735 whole entry, canonical isoform): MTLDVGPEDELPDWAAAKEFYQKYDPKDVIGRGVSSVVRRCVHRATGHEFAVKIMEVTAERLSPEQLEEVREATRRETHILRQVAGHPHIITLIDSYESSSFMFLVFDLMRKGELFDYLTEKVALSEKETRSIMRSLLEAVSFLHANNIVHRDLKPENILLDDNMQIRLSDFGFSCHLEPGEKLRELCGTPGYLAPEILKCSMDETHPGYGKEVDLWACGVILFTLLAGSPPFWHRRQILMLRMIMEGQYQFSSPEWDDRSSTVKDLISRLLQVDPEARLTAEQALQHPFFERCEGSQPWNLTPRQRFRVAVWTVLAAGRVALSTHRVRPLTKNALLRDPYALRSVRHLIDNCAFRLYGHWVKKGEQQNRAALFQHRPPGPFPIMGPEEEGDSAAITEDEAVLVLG

## CN1CCC(c2c(O)cc(O)c3c(=O)cc(-c4ccccc4Cl)oc23)C(O)C1 (centres undefined)
[1]
  Ki: > 5.01 µM (inactive)
[2]
  Ki: > 1.58 µM (inactive)
[3]
  Ki: > 1.58 µM (inactive)
[4]
  Ki: > 1.58 µM (inactive)
[5]
  Ki: > 3.98 µM (inactive)
Insulin receptor
  Ki: > 5.01 µM (inactive)
[6]
  Ki: 0.501 µM (active)
[7]
  Ki: > 7.94 µM (inactive)
[8]
  Ki: > 2 µM (inactive)
[9]
  Ki: > 1.58 µM (inactive)
[10]
  Ki: > 7.94 µM (inactive)
[11]
  Ki: > 10 µM (inactive)
[12]
  Ki: 1 µM (active)
  pKi: 6

## CC(/C=C1\SC(=S)N(NS(=O)(=O)c2ccc(C)cc2)C1=O)=C\c1ccccc1
[13]
  EC50: 1.41 µM (active)
Genome polyprotein
  IC50: 27.1 µM (active)

## Cc1ccc(NC2=C(NCCO)C(=O)c3ccccc3C2=O)cc1
[14]
  IC50: 15.7 µM (active)
Protein RecA
  EC50: 11.7 µM (active)

## COc1ccc(C2=NNc3cccc4c(OC)ccc2c34)cc1OC
[15]
  Ki: > 2.51 µM (inactive)
